Article PMC6202310 (Molecular Cell, 2018)
Converted amounts (≈) assume the structure as drawn.

Experiments:
[1] = biological target: E. coli RNAP βH526Y (Escherichia coli, UniProt P0A8V2, H526Y); format: biochemical; details: at 2.5 mg/mL; mutation at βH526
[2] = tested on: methicillin-resistant Staphylococcus aureus (MRSA); test: Agar dilution MIC
[3] = biological target: wild-type E. coli RNAP (Escherichia coli, UniProt P0A8V2); test: In vitro transcription on T7A1 promoter template; format: biochemical; details: transcription started with ATP, in the absence of the CpA primer
[4] = biological target: E. coli RNAP βR143A (Escherichia coli, UniProt P0A8V2, R143A); format: biochemical; details: βR143A RNAP against wild-type RNAP
[5] = biological target: E. coli RNAP βH526R (Escherichia coli, UniProt P0A8V2, H526R); format: biochemical; details: at 2.5 mg/mL; mutation at βH526
[6] = biological target: E. coli RNAP βH526P (Escherichia coli, UniProt P0A8V2, H526P); format: biochemical; details: at 2.5 mg/mL; mutation at βH526
[7] = biological target: M. smegmatis RNAP (Mycolicibacterium smegmatis, UniProt P60281); test: In vitro transcription on T7A1 promoter template; format: biochemical; details: performed as with E. coli RNAP, started with ATP

CO[C@H]1/C=C/O[C@@]2(C)Oc3c(C)c(O)c4c(O)c(c(/C=N/N5CCN(C)CC5)c(O)c4c3C2=O)NC(=O)/C(C)=C\C=C\[C@H](C)[C@H](O)[C@@H](C)[C@@H](O)[C@@H](C)[C@H](OC(C)=O)[C@@H]1C [RIF, rifampicin]
inhibition of RNAP [1]: no inhibition
MIC ([2]; S. aureus Bel 97597): 2 mg/L (≈ 2.43 µM)
MIC ([2]; S. aureus Bel 97598): > 128 mg/L
MIC ([2]; S. aureus Fin 54511): > 128 mg/L
MIC ([2]; S. aureus Fin 54518): > 128 mg/L
formation of the triphosphorylated trinucleotide, pppApUpC [3]: allowed some of its production
inhibition of formation of the first dinucleotide, pppApU [3]: 3 fold
effect of the βR143A mutation on sensitivity [4]: little effect
inhibition of RNAP [5]: no inhibition
inhibition of RNAP [6]: no inhibition
synthesis of the trinucleotide (pppApUpC) [7]: partly allowed
